Measurements as given in the NIST ThermoML archive (doi:10.1016/j.fluid.2018.06.003).
± gives the expanded uncertainty stated by the source.

Key:
[1] = refractive index (Na D-line) (dimensionless); xn = mol fraction of the nth substance listed; conditions: 298.15 K; 101 kPa; Liquid; Standard Abbe refractometry; x1 = 0.3336
[2] = xn = mol fraction of the nth substance listed; conditions: 298.15 K; 101 kPa; Liquid; Vibrating tube method; x1 = 0.3336

`C[N+](C)(C)C.[Cl-]` [tetramethylammonium chloride] + OCC(O)CO gave a refractive index [1] of 1.47183 ± 0.00044 and a mass density [2] of 1145.22 ± 2.1 kg/m3.
